From patent publication US20220356163A1, “SMALL MOLECULE INHIBITORS OF Id PROTEINS” (MEMORIAL SLOAN KETTERING CANCER CENTER, priority 2019, published 2022) come the findings set out here.

A word on the IC50: it is the concentration that gives 50% inhibition.

For data set [1], the target named is T1, Id3 (Mus musculus, UniProt P41133).
T1 construct: GST (cleaved yes); made in house; host or cells: E. coli Rosetta 2(DE3)
In words: Circular dichroism (CD) of Id3. Type of data set: binding. The note with it: 0 or 100 μM. The method, then:
Id protein purification. pGEV-PSP-mId1 and mId3 expression constructs were transformed into Rosetta 2(DE3) Competent Cells (Sigma Millipore) for protein expression. To produce recombinant GST-tagged protein, a 50 mL LB/Ampicillin (100 μg/m)+Chloramphenicol (25 μg/mL) culture was grown overnight at 37° C. Early the next day, the overnight culture was diluted 1:100 into 6 L LB/Ampicillin+Chloramphenicol and cultured at 37° C. for about four hours until OD600=0.7. Cultures were induced with 1 mM IPTG and incubated at 16° C. for 16-18 hours. Cells were harvested by centrifugation at 4000 rpm for 15 minutes at 4° C. and the pellet was resuspended in lysis buffer (50 mM Tris pH 8.0; 400 mM NaCl; 0.5 mM TCEP, Protease Inhibitor Cocktail) (25 mL/L of culture). To lyse the cells, Triton X-100 and lysozyme were added to 0.1% and 10 μg/mL respectively, incubated for 30 minutes on ice and sonicated. Lysates were spun at 17,000 rpm for 30 minutes at 4° C. and supernatants were filtered through a […] filter before incubation with glutathione sepharose for two hours at 4° C. The sepharose with bound protein was run through a polypropylene column and washed twice with 50 mL wash buffer (50 mM Tris pH 8.0; 400 mM NaCl) before protein was eluted with 10 mL 50 mM glutathione elution buffer, pH 8.0. […]

Data set [2] deals with T47-D. In words: MTT assay, T47-D. To be noted: ER +ve cell line, 24 hours. The class given is cell-based. The text has this: (§1) The 4T1 murine mammary tumor cell line and nine breast cancer cell lines representing the major breast cancer subtypes (ER+, HER2+, and TNBC) including MDA-MB-157, MDA-MB-436, MDA-MB-231, MDA-MB-453, MDA-MB-361, BT-474, SK-BR-3, MCF-7 and T47-D will be grown in RPMI or DMEM (Dulbecco's Modified Eagle Medium) media supplemented with 10% FBS (fetal bovine serum), 1% penicillin-streptomycin and 1% L-Glutamine. Patient derived xenograft cell lines BR7, BR11, and IBT will be established directly from breast cancer bone metastases specimens surgically resected from patients with informed consent. BR7 and BR11 specimens will be obtained from ER positive (HER2 negative and PR negative) metastatic breast cancer patients, while the IBT specimen will be obtained from a metastatic, triple negative breast cancer patient. Fresh tumor tissues will be quickly washed with ice cold PBS and minced into about 1-3 mm pieces in MEM medium (without FBS) using sterile razor blades. […] The cells will be treated with either 100 μM DMSO, AGX51, or a compound of the present technology such as AGX-A. The cell morphology and growth will be monitored daily for 1 week by microscopy for changes in morphology or cell death. […] Absorbance will then measured at 570 nm using a plate reader (Synergy 2, BioTek). […]
On the technique in general: Tetrazolium dyes change colour on reduction, which living cells bring about.

In data set [3] the test system is SK-BR-3. Kind of data set: MTT assay, SK-BR-3. Type of data set: cell-based. The note with it: Homo sapiens, 24 h, SK-BR-3, HER-2 +ve cell line, read-out: IC50 value after 24 hours of treatment.
Source text: as §1

Data set [4] has as its system E protein binding. Kind of data set: EMSA on whole cell lysates from HCT116 cells. Type of data set: cell-based. The note with it: 24 hours treatment. The method, then:
Electrophoretic mobility shift assays. To test the activity of compounds identified in the in silico screen, full-length E47 was purified from bacteria and mixed with a P^32 labeled E-box sequence derived from the muscle creatine kinase (MCK) enhancer, BSA, DTT, poly dI-dC, salmon sperm, and HeLa nuclear extract, in the presence or absence of purified full-length Id1. Increasing concentrations of the various test compounds dissolved in DMSO or DMSO alone were added to the reaction mixes for 30 minutes, resolved on a 5% non-denaturing polyacrylamide gel, and autoradiographed. Electrophoretic mobility shift assays (EMSAs) were carried out on whole cell lysates from AGX51-treated cells and the EMSA was performed as described previously (Tournay and Benezra, Mol Cell Biol, 16: 2418-30 (1996)).
Without being bound by theory, it was hypothesized that loss of Id proteins in response to AGX51 should result in an increase in E protein binding activity assuming little interference of the compound with the E proteins themselves. […] To determine if loss of Id activity precedes Id protein loss, EMSAs were carried out using cell lysates from HCT116 cells treated with AGX51 for one hour.
In general terms: Mobility shift assays separate free from complexed probe on a gel.

Structures are written as SMILES.

T1 sequence (P41133 whole entry): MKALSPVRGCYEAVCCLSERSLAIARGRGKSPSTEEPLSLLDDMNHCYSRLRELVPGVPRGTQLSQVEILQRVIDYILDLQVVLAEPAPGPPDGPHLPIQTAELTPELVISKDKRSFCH

Regarding `CCC(=O)N(CCC(c1ccc2c(c1)OCO2)c1ccccc1OC)Cc1ccccc1` (racemic) [AGX51, N-(3-(benzo[d][1,3]dioxol-5-yl)-3-(2-methoxyphenyl)propyl)-N-benzylpropionamide], the “effect on Id3 secondary structure (CD)” value in data set [1] was “small but reproducible effect”. Moreover, the “percentage at 60 μM (IC50 NA)” value in data set [2] was “NA (60 μM = 65%)”. Also, in data set [3], the IC50 was 36.6 µM. Further, in data set [4], the “E protein binding in cell lysates” value is recorded as “small increase in E protein binding”.
